The structures appear in SMILES notation. Where two headings read alike, the source gives them in different places.

In data set [1] the test system is Fasciola hepatica. In words: Chemotherapeutic test against adult liver flukes in artificially infected sheep (egg count reduction / killed flukes), oral application. Format: in vivo, Schaf. The text has this: (§1) Zur Feststellung der Wirkung der erfindungsgemäßen Verbindungen gegen Fasciolide wurden chemotherapeutische Untersuchungen bei ca. 250 g schweren Ratten, bei 2 - 3,5 kg schweren Kaninchen oder an ca. 25 - 30 kg schweren Schaflämmern ausgeführt. Die Versuchstiere wurden mit 15, mit 50 bzw. mit 350 Metazerkarien von Fasciola hepatica artifiziell oral infiziert. Nach Ablauf der Präpatenzperiode (Zeit zwischen Infektion und Geschlechtsreife der Parasiten mit beginnender Ausscheidung von Vermehrungsprodukten) wurde der Parasitenbefall durch Kotuntersuchungen gesichert. Der qualitativ-quantitative Nachweis von Eiern erfolgte nach der Telemann-Anreicherung (Deutsche Medizinische Wochenschrift "34: 1510, 1908).
(§2) Unmittelbar nach der Bestimmung der Eizahl pro Gramm Kot wurde die Behandlung der Versuchstiere (im allgemeinen 3 - 4 Tiere pro Wirkstoff, mindestens aber zwei) vorgenommen. Den Tieren wurde oral eine Suspension von unterschiedlicher Wirkstoffmenge in jeweils festgelegten Volumen (Ratte: 0,5 ml/Tier, Kaninchen: 2 ml/Tier, Schaf: 10 ml/Tier) in einer Tylose-Suspension appliziert. Jeweils am 7., 14. und 28. Tag nach der Behandlung wurde wiederum nach der vorstehend angegebenen Methode die Eizahl pro Gramm Kot ermittelt und die prozentuale Abnahme im Vergleich zum Ausgangswert vor der Behandlung und in Vergleich zu unbehandelten Kontrolltieren errechnet.
(§3) Mit einigen erfindungsgemäßen Verbindungen wurden außerdem beim Fasciola-Befall noch eine zusätzliche Prüftechnik angewandt: Nach Abschluß der Präpatenzperiode wurde bei Fasciola-positiven Schafen ein künstlicher Gallengang geschaffen, der am Ausgang der Gallenblase ein Sieb enthielt, so daß die nach der Behandlung abgetöteten Leberegel in der Gallenblase aufgefangen werden konnten. Vier bis sieben Tage nach der Behandlung wurden die so operierten und dann behandelten Schafe getötet, die abgetöteten Leberegel in der Gallenblase so wie noch eventuell in der Leber vorhandene Leberegel gezählt und von der gesamten Wurmbürde der Prozentsatz der abgetöteten Parasiten berechnet. Bei ausgewählten Substanzen wurden über die Kotuntersuchung hinaus auch die behandelten Tiere seziert und die Leber auf eine eventuelle Rest-Wurmbürde von Fasciola hepatica untersucht.

For data set [2], the system named is Fasciola hepatica. In words: Chemotherapeutic test against adult liver flukes in artificially infected rats (reduction of egg count per gram faeces), oral application. Format: in vivo. As to conditions: Ratte.
Text: as §1, §2, §3

Data set [3] deals with Fasciola hepatica. In words: Chemotherapeutic test against adult liver flukes in artificially infected rabbits (reduction of egg count per gram faeces), oral application. In kind it is in vivo. To be noted: Kaninchen.
Text: Zur Feststellung der Wirkung der erfindungsgemäßen Verbindungen gegen Fasciolide wurden chemotherapeutische Untersuchungen bei ca. 250 g schweren Ratten, bei 2 - 3,5 kg schweren Kaninchen oder an ca. 25 - 30 kg schweren Schaflämmern ausgeführt. Die Versuchstiere wurden mit 15, mit 50 bzw. mit 350 Metazerkarien von Fasciola hepatica artifiziell oral infiziert. Nach Ablauf der Präpatenzperiode (Zeit zwischen Infektion und Geschlechtsreife der Parasiten mit beginnender Ausscheidung von Vermehrungsprodukten) wurde der Parasitenbefall durch Kotuntersuchungen gesichert.
as §2, §3

The nature of data set [4]: in vivo. As to conditions: sheep, quotient of Dosis tolerata maxima and applied dose, read-out: Sicherheits-faktor. The text has this:
Eine einmalige Verabreichung der erfindungsgemäßen Wirkstoffe in den angegebenen Dosierungen führt zu einem völligen Aufhören der Eiausscheidung und einer nahezu 100 %igen Befreiung der Tiere von Fasciola hepatica. Alle Dosierungen wurden von den Tieren ohne Nebenerscheinungen vertragen. Dieses wird durch den Sicherheitsfaktor unterstrichen, der wesentlich günstiger ist als bei den zum Vergleich herangezogenen Wirkstoffen
Der Sicherheitsfaktor gibt den Quotienten aus Dosis tolerate maxima und angewandter Dosis an. Die Ergebnisse dieser Versuche sind in der nachstehenden Tabelle zusammengestellt.

[5] abbreviates: 75 mg/kg peroral, adult liver flukes.

As to `CSc1nc2cc(OS(=O)(=O)c3cccc(C(F)(F)F)c3)ccc2[nH]1` [Beispiel 1, 5(6)-(3-Trifluormethyl-phenylsulfonyloxy)-2-methylmercapto-benzimidazol], the Wirkung % is on record as >95% in data set [1] (Schaf, 7,5 mg/kg peroral); 100% in data set [1] (Schaf, 10,0 mg/kg peroral); 80% in data set [2] (50 mg/kg peroral); 100% in data set [2] (75 mg/kg peroral); 100% in data set [3] (setting [5]); 100% in data set [3] (<50 mg/kg peroral, adult liver flukes).
`CC(=O)Oc1c(I)cc(I)cc1C(=O)Nc1ccc(Cl)cc1` [Clioxanide, 2-Acetoxy-4-chlor-3,5-dijod-benzanilid]: the selectivity ratio in data set [4] (applied dose 3,75 mg/kg (Schaf)) was determined as 30; in data set [4] (applied dose 7,5 mg/kg (Schaf)), 15. Besides, the Wirkung % entry in data set [1] (Schaf, 3,75 mg/kg peroral) is listed as “ca.50%”; in data set [1] (Schaf, 7,5 mg/kg peroral), >90%; in data set [2] (135 mg/kg peroral), 0%; in data set [2] (200 mg/kg peroral) it was 0%; in data set [3] (50 mg/kg peroral, adult liver flukes) it was 0%; in data set [3] (setting [5]), 0%.
`O=[N+]([O-])c1cc(Cl)cc(-c2cc(Cl)cc([N+](=O)[O-])c2O)c1O` [Niclofolan, 5,5'-Dichlor-2,2`-dihydroxy-3,3'-dinitro-phenyl]: in data set [4] (applied dose 3,0 mg/kg (Schaf)), the selectivity ratio stood at 4.4. Moreover, the Wirkung % was <50% in data set [1] (Schaf, 1,5 mg/kg peroral); >90% in data set [1] (Schaf, 3,0 mg/kg peroral); 80% in data set [2] (4 mg/kg peroral); 90% in data set [2] (8 mg/kg peroral); “Exitus” in data set [3] (4 mg/kg peroral, death printed instead of an efficacy value).
